Values after ≈ are worked out from the molar mass of the structure shown. Like-named read-outs stand apart in the source and are kept apart here.
What was measured:
[1] = Water solubility of PBICs; type: physicochemical; conditions: for solubility: water; for Water solubility, TPMP Conjugate: TPMP conjugate of the drug
Description: (§1) The water solubilties and partition coefficients of the PBICs were measured and compared to the values of the therapeutic agent by itself. To determine the partition coefficient Log D7.4 data provided in Table 2, a solution of the compound or conjugate was prepared in aqueous phosphate buffered saline (PBS) at a concentration of 100 micromolar (μM). The PBS solution was shaken with octanol. Thus, in Table 2, Log D7.4=Log (concentration in octanol/concentration in aqueous phosphate buffered saline (PBS))=Log[(initial concentration in PBS−final concentration in PBS)/final concentration in PBS], as the concentration in octanol is derived from the loss of compound from the aqueous PBS layer.

Caco-2 cell permeability = conditions: human, Caco-2
[2] = Partition coefficient octanol/PBS (LogD7.4); type: physicochemical; conditions: 100 μM in PBS shaken with octanol
Description: as §1

Caco-2 = Caco-2 cell permeability; conditions: No Inhibitor
[3] = parent drug; cited from earlier work

CC(O)CC(=O)O (racemic) [3-hydroxybutyric acid]
solubility ([1]; parent drug by itself): 444000 µg/mL (≈ 4260 mM)

NCC(CC(=O)O)c1ccc(Cl)cc1 (centres unmarked) [Baclofen]
solubility ([1]; parent drug by itself): 700 µg/mL (≈ 3.28 mM)

C[C@H](CS)C(=O)N1CCC[C@H]1C(=O)O [Captopril]
solubility ([1]; parent drug by itself): 160000 µg/mL (≈ 736 mM)

C[C@H](CCC(=O)O)[C@H]1CC[C@H]2[C@@H]3CC[C@@H]4C[C@H](O)CC[C@]4(C)[C@H]3C[C@H](O)[C@]12C [Deoxycholic acid]
Water solubility, Drug ([1]; parent drug by itself): 43.6 mg/L

O=C(O)Cc1ccccc1Nc1c(Cl)cccc1Cl [Diclofenac, reference compound]
Papp A→B (Caco-2 cell permeability): 34.5 ×10⁻⁶ cm/s
Papp B→A (Caco-2 cell permeability): 13.5 ×10⁻⁶ cm/s

O=C(O)c1cc(-c2ccc(F)cc2F)ccc1O [Diflunisal]
solubility ([1]; parent drug by itself): 14.5 µg/mL (≈ 0.058 mM)

CC(C)Cc1ccc(C(C)C(=O)O)cc1 (centres unmarked) [Ibuprofen, reference compound]
Water solubility, Drug [1]: 21.0 mg/L
Papp A→B (Caco-2 cell permeability): 40.5 ×10⁻⁶ cm/s
Papp B→A (Caco-2 cell permeability): 19 ×10⁻⁶ cm/s

CC(C)Cc1ccc(C(C)C(=O)[O-])cc1.COC1=C(OC)C(=O)C(CCCCCCCCCC[P+](c2ccccc2)(c2ccccc2)c2ccccc2)=C(C)C1=O [Ibuprofen-MitoQ, Ibuprofen MitoQ conjugate]
Water solubility, MitoQ Conjugate ([1]; MitoQ conjugate of the drug): Insoluble
(Conc. in octanol)/(Conc. in PBS) [2]: 9.94
LogD7.4 [2]: 1.00
Mean (B-A/A-B) Efflux Ratio (Caco-2): 0.467
Mean Papp A-B (Caco-2): 52.1 10^−6 cm/s
Mean Papp B-A (Caco-2): 24.3 10^−6 cm/s

COc1ccc2c(c1)c(CC(=O)O)c(C)n2C(=O)c1ccc(Cl)cc1 [Indomethacin]
solubility ([1]; parent drug by itself): 0.9 µg/mL (≈ 0.00252 mM)

CC(C)OC(=O)CCC/C=C\C[C@@H]1[C@@H](CC[C@@H](O)CCc2ccccc2)[C@H](O)C[C@@H]1O [Latanoprost]
solubility ([1]; parent drug by itself): 8 µg/mL (≈ 0.0185 mM)

N[C@@H](Cc1cc(I)c(Oc2cc(I)c(O)c(I)c2)c(I)c1)C(=O)O [Levothyroxine]
solubility ([1]; parent drug by itself): 0.2 µg/mL (≈ 0.000257 mM)

CC[C@H]1[C@@H](O)[C@@H]2[C@H](CC[C@]3(C)[C@@H]([C@H](C)CCC(=O)O)CC[C@@H]23)[C@@]2(C)CC[C@@H](O)C[C@@H]12 [Obeticholic acid, reference compound]
LogP (Reported) [3]: 3.5
Papp A→B (Caco-2 cell permeability): 32.6 ×10⁻⁶ cm/s
Papp B→A (Caco-2 cell permeability): 3.23 ×10⁻⁶ cm/s
efflux ratio (Caco-2 cell permeability): 0.0989

CCC1C(O)C2C3CCC(C(C)CCC(=O)[O-])C3(C)CCC2C2(C)CCC(O)CC12.COC1=C(OC)C(=O)C(CCCCCCCCCC[P+](c2ccccc2)(c2ccccc2)c2ccccc2)=C(C)C1=O [Obeticholic acid-MitoQ]
(Conc. in octanol)/(Conc. in PBS) [2]: 624.00
LogD7.4 [2]: 2.80
Mean (B-A/A-B) Efflux Ratio (Caco-2): 0.0872
Mean Papp A-B (Caco-2): 18.9 10^−6 cm/s
Mean Papp B-A (Caco-2): 1.65 10^−6 cm/s

C[C@@H](O)CC(=O)O [R-3-Hydroxybutyric acid, (R)-3-hydroxybutyric acid]
solubility ([1]; parent drug by itself): 444000 µg/mL (≈ 4260 mM)

CC1=C(/C=C/C(C)=C/C=C/C(C)=C/C(=O)O)C(C)(C)CCC1 [Retinoic acid]
Water solubility, Drug ([1]; parent drug by itself): 1,000.0 mg/L

O=C(O)c1cc(/N=N/c2ccc(S(=O)(=O)Nc3ccccn3)cc2)ccc1O [Sulfasalazine]
solubility ([1]; parent drug by itself): 1 µg/mL (≈ 0.00251 mM)

CC(C)OC(=O)CCC/C=C\C[C@@H]1[C@@H](/C=C/[C@@H](O)COc2cccc(C(F)(F)F)c2)[C@H](O)C[C@@H]1O [Travoprost]
solubility ([1]; parent drug by itself): 7 µg/mL (≈ 0.014 mM)

CCCCC[C@H](O)CC[C@@H]1[C@H]2Cc3cccc(OCC(=O)O)c3C[C@H]2C[C@H]1O [Treprostinil]
solubility ([1]; parent drug by itself): 7 µg/mL (≈ 0.0179 mM)

(R)-3-Hydroxybutyric Acid-TPMP conjugate [R-3-Hydroxybutyric acid TPMP Conjugate]
Water solubility, TPMP Conjugate [1]: 2,867,500.0 mg/L

Baclofen-TPMP conjugate [Baclofen TPMP Conjugate]
Water solubility, TPMP Conjugate [1]: 13,500.0 mg/L

Captopril TPMP conjugate
Water solubility, TPMP Conjugate [1]: 3,036,666.7 mg/L

Deoxycholic acid TPMP conjugate
Water solubility, TPMP Conjugate [1]: 2,518,000.0 mg/L

Diflunisal-TPMP conjugate [Diflunisal TPMP Conjugate]
Water solubility, TPMP Conjugate [1]: 1,518,333.3 mg/L

Indomethacin-TPMP conjugate [Indomethacin TPMP Conjugate]
Water solubility, TPMP Conjugate [1]: 1,700,000.0 mg/L

L-Thyroxine TPMP conjugate [Levothyroxine TPMP Conjugate]
Water solubility, TPMP Conjugate [1]: <400 mg/L

Latanoprost Acid-TPMP conjugate [Latanoprost TPMP Conjugate]
Water solubility, TPMP Conjugate [1]: 2,187,777.8 mg/L

Obeticholic acid-TPMP
(Conc. in octanol)/(Conc. in PBS) [2]: 1,182.39
LogD7.4 [2]: 3.07
Mean (B-A/A-B) Efflux Ratio (Caco-2): 0.103
Mean Papp A-B (Caco-2): 20.5 10^−6 cm/s
Mean Papp B-A (Caco-2): 2.11 10^−6 cm/s

Retinoic Acid-TPMP conjugate [Retinoic acid TPMP Conjugate]
Water solubility, TPMP Conjugate [1]: 2,624,000.0 mg/L

Travoprost Acid-TPMP conjugate [Travoprost TPMP Conjugate]
Water solubility, TPMP Conjugate [1]: 1,921,666.7 mg/L

Treprostinil TPMP conjugate
Water solubility, TPMP Conjugate [1]: 2,558,000.0 mg/L

racemic 3-Hydroxybutyric Acid-TPMP conjugate [3-hydroxybutyric acid TPMP Conjugate]
Water solubility, TPMP Conjugate [1]: 4,332,500.0 mg/L
